{"source": "patent US8450374B2", "about": "“Pan-antagonists for the androgen receptor and androgen receptor mutants associated with anti-androgen withdrawal” (priority 2009, dated 2013)", "key": {"[1]": {"assay": "In vivo tolerability of PAN52", "design": "species or system Male C57Bl/6 mice", "details": "25 mg/kg/day IP in 9:1 Cremophor, 3 day or 5 day course"}, "LNCaP cells [2]": {"system": "LNCaP cells", "assay": "Clonogenic assay / in vitro selection for antiandrogen resistance", "type": "cell-based", "details": "RPMI + 10% DCC-FBS", "description": "Clonogenic assays are performed by a modification of the procedure described by Nara et al. (Cancer Research 2003, 63, 149-153). […] Media was changed every three days was and documented weekly. If cells reach 95% confluence, the cells were counted and reseeded at a density of 80,000 cell per well."}, "GFP-AR": {"molecular_target": "T1, GFP-AR (Homo sapiens, UniProt P10275)", "T1 construct": "expressed in transfected cells; host or cells: CV-1 monkey kidney cells", "T1 sequence (P10275 1-920)": "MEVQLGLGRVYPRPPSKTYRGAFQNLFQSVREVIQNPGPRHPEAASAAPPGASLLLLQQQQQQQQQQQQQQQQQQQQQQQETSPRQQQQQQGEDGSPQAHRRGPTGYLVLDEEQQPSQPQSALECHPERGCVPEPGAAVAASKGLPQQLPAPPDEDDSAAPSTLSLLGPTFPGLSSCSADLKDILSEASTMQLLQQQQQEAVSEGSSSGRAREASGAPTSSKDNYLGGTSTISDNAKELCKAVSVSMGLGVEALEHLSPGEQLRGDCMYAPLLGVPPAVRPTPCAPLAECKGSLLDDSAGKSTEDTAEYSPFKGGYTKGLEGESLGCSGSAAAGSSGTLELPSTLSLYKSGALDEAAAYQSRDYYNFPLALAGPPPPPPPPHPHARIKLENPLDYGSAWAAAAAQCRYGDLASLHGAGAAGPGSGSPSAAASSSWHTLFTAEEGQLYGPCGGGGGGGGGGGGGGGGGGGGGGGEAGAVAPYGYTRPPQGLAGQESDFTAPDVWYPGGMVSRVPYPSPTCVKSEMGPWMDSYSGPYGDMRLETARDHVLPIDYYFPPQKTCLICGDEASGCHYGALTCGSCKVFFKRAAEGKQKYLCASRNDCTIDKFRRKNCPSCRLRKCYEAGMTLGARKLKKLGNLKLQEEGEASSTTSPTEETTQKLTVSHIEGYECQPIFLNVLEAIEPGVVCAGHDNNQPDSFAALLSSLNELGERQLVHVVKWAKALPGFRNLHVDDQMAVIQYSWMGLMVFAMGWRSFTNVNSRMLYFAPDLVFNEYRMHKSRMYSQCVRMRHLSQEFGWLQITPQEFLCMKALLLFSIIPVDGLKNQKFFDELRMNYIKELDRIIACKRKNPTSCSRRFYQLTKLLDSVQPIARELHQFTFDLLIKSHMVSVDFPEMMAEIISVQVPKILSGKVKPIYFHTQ", "assay": "Nuclear localization of GFP-AR in CV-1 cells", "type": "cell-based", "details": "2 h after ligand addition; DHT 10 μM, other ligands 100 μM", "quoted_text": "Nuclear localization of GFP-AR in CV-1 cells grown in 10% charcoal stripped CCS/DMEM.\nCV-1 monkey kidney cells were seeded in a 12 well plate at a concentration of 50,000 cells per well. After 24 h, the cells were transfected with GFP-AR in a solution of Opti-MEM and Lipofectamine 2000, and incubated overnight. The cells were then imaged on a fluorescent microscope, followed by the addition of 6 respective ligands, and control (DMSO vehicle). […] The cells were incubated for two hours and again imaged. The cells were fixed, and stained (DAPI) to image the nucleus."}, "LNCaP cells [3]": {"system": "LNCaP cells", "assay": "LIVE/DEAD cytotoxicity assay", "type": "cell-based", "details": "1 μM, nine days, RPMI + 10% DCC-FBS", "description": "FIG. 1. […] The pictures were taken after nine days of incubation in RPMI supplemented with 10% DCC-FBS plus indicated antiandrogens. B and C. Quantitative analysis of images.\nMedia was changed every 3 days and floating cells were centrifuged down and reseeded into dish. LIVE/DEAD reagent was added after 9 days culturing. Live cells (indicated by green fluorescence) were counted and compared to the number of dead cells (red)."}}}
{"smiles": "CN(C)CCCOc1cccc(-c2ccccc2S(=O)(=O)CC(C)(O)C(=O)Nc2ccc(C#N)c(C(F)(F)F)c2)c1", "note": "(stereo not shown) [PAN52]", "values": [{"measurement": "Behavior in grooming or feeding", "setting": "[1]", "result": "no abnormal behavior in grooming or feeding"}, {"measurement": "Ability to evade resistance in in vitro selections (resistant LNCaP clones)", "setting": "LNCaP cells [2]", "result": "evade resistance"}, {"measurement": "Nuclear localization of GFP-AR fluorescence", "setting": "GFP-AR", "result": "little to no nuclear localization"}, {"measurement": "Viable cells (green) in fluorescence images", "setting": "LNCaP cells [3]", "result": "almost all cells"}]}
